Test results as given in article PMC5464911, “SEL120-34A is a novel CDK8 inhibitor active in AML cells with high levels of serine phosphorylation of STAT1 and STAT5 transactivation domains” (Oncotarget, 2017).

Tested on: EGR1 and FOS mRNA
Test: Serum-induced immediate early response gene expression in HCT-116 cells (qRT-PCR)
Type: cell-based
Details: quiescent HCT-116 cells, 2 hours with 1 μM, then FBS time-course
Experimental: (B) SEL120-34A inhibits IFN-dependent phosphorylation of STAT1 S727. HCT-116 cells stimulated with IFNg for 4 h were treated with increasing doses of SEL120-34A, Flavopiridol (F) or vehicle DMSO (C) to determine changes in the phosphorylation of STAT1 S727 and Y701, as measured by WB. (*) unspecific band. (C) SEL120-34A inhibits serine phosphorylation of STAT1 S727 and STAT5 S726, whereas Ruxolitinib inhibits tyrosine phosphorylation of STAT1 Y701 and STAT5 Y694 in JAK2 V617F cells. SET-2 cells were treated with Ruxolitinib, SEL120-34A or vehicle DMSO (C) for 24 hours and protein levels of pS727, pY701 STAT1 and pS726, pY694 STAT5 were measured by WB. […]
[…]

Compound: Cc1c(Br)c(Br)c2c3c1nc(N1CCNCC1)n3CCC2 [SEL120-34A]
- inducible expression of IER genes EGR1 and FOS: substantially repressed
